This is an account of results in patent US8865704B2, “Wnt pathway antagonists” (Siena Biotech S.p.A., priority 2009, dated 2014).

In one experiment the test system is DBTRG cells. The experiment can be described thus: Soft agar anchorage independent assay. The class given is cell-based. The following applies: 504 h, colonies scored 3 weeks later, read-out: 1050 value in the soft agar assay. How it is done:
The pharmacological activity of the compounds of the invention may be tested in vitro for growth inhibition against tumour cell lines. Such cell lines may, for example be representative of glioblastoma (such as DBTRG-05MG), or colorectal (for example DLD-1, HCT116) cancer. The different genetic background of the cancer cell will facilitate to understand to which level of the pathway the compounds work. If the cells harbour a truncated APC allele, the destruction complex activity is affected; if cells carry a gain of function mutation in the β-catenin gene, which prevents β-catenin protein degradation, this leads to constitutive activation of downstream genes. There are many assays available for testing the growth inhibition.
Soft Agar Anchorage Independent Assay
DBTRG cells were seeded into a 24-well format in the presence of carrier alone or compound (0.6% DMSO (v/v)). Each well is composed of two agar layers: the bottom layer consists of 0.6% Agar while the top has 0.35% Agar plus cells and compound. Cells (2500 per well) were incubated with 7 points dilution compound the day of the plating and the colonies were scored 3 weeks later after o/n staining with MTT solution. Imaging and counting of the colonies was done with the GelCount™ instrument (Oxford Optronix, UK). For IC50 determination the data were expressed as % of control, values were calculated using XLFit version 4.2, with a four parameters sigmoid function (XLFit model 205).

Another experiment concerns Wnt/β-catenin pathway. Description: Wnt reporter assay (TCF-Luciferase, Firefly) in DBTRG-05MG cells. The class given is cell-based. To be noted: Homo sapiens, 24 hours after compound addition. In a few lines:
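DBTRG-05MG cells carrying a 4×TCF-driven firefly luciferase reporter, kept under Zeocin or Zeocin plus Hygromicin selection. Compounds added 36 hours after plating at 8 points from 60 μM to 0.185 μM (0.6% DMSO), triplicate, for 24 hours. Firefly and Renilla luminescence each expressed as % of control; IC50 from four-parameter sigmoid fit.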
(In general: In a reporter assay the amount or activity of a reporter protein is the signal.)

Each structure is given as a SMILES string.

`COc1ccc2[nH]c(=O)n(C[C@H]3CC[C@H](C(=O)N4CCN(C(=O)C(C)C)CC4)CC3)c(=O)c2c1` [Example 3, 3-[trans-4-(4-Isobutyryl-piperazine-1-carbonyl)-cyclohexylmethyl]-6-methoxy-1H-quinazoline-2,4-dione]: the IC50 with DBTRG cells lay in the range of 0.9 to 30 µM; with Wnt/β-catenin pathway it was 0.3 to 30 µM.

With `CCCC(=O)N1CCN(C(=O)[C@H]2CC[C@H](Cn3c(=O)c4ccccc4n(C)c3=O)CC2)CC1` [Example 5, 3-[trans-4-(4-Butyryl-piperazine-1-carbonyl)-cyclohexylmethyl]-1-methyl-1H-quinazoline-2,4-dione], the IC50 with DBTRG cells was in the range of 0.9 to 30 µM; in the experiment with Wnt/β-catenin pathway it was 0.3 to 30 µM.

With `Cn1c(=O)n(C[C@H]2CC[C@H](C(=O)N3CCOCC3)CC2)c2cc(C(F)(F)F)ccc21` [Example 10, 1-Methyl-3-[trans-4-(morpholine-4-carbonyl)-cyclohexylmethyl]-5-trifluoromethyl-1,3-dihydro-benzoimidazol-2-one], the IC50 in the experiment on DBTRG cells fell in the range of 0.9 to 30 µM; in the experiment on Wnt/β-catenin pathway, 0.3 to 30 µM.

Regarding `O=C(C1CCC(Cn2c(=O)[nH]c3ccccc3c2=O)CC1)N1CCN(c2ccccc2)CC1` (centres unmarked) [Example 18], the IC50 was 0.9 to 30 µM in the experiment on DBTRG cells and 0.3 to 30 µM in the experiment with Wnt/β-catenin pathway.

Regarding `O=c1[nH]c2ccccc2c(=O)n1C[C@H]1CC[C@H](C(=O)N2CCN(c3ccc(F)cc3)CC2)CC1` [Example 20], the IC50 in the experiment with DBTRG cells fell in the range of 0.9 to 30 µM; in the experiment on Wnt/β-catenin pathway, 0.3 to 30 µM.

Regarding `COc1ccccc1N1CCN(C(=O)[C@H]2CC[C@H](Cn3c(=O)[nH]c4ccccc4c3=O)CC2)CC1` [Example 21], the IC50 lay in the range of 0.9 to 30 µM with DBTRG cells and 0.3 to 30 µM in the experiment with Wnt/β-catenin pathway.

Take `O=c1[nH]c2ccc(Cl)cc2c(=O)n1C[C@H]1CC[C@H](C(=O)N2CCN(c3ccccc3)CC2)CC1` [Example 26]: the IC50 in the experiment with DBTRG cells was 0.9 to 30 µM; with Wnt/β-catenin pathway, 0.3 to 30 µM.

In the case of `CC(=O)N1CCN(C(=O)[C@H]2CC[C@H](Cn3c(=O)[nH]c4ccc(Cl)cc4c3=O)CC2)CC1` [Example 27], the IC50 lay within 0.9 to 30 µM in the experiment on DBTRG cells and 0.3 to 30 µM with Wnt/β-catenin pathway.

For the compound `O=C(C1CCCC1)N1CCN(C(=O)[C@H]2CC[C@H](Cn3c(=O)[nH]c4ccccc4c3=O)CC2)CC1` [Example 29], the IC50 in the experiment on DBTRG cells lay in the range of 0.9 to 30 µM; with Wnt/β-catenin pathway, 0.3 to 30 µM.

Take `O=C(c1cccs1)N1CCN(C(=O)[C@H]2CC[C@H](Cn3c(=O)[nH]c4ccccc4c3=O)CC2)CC1` [Example 37]: the IC50 in the experiment with DBTRG cells was in the range of 0.9 to 30 µM; with Wnt/β-catenin pathway it was 0.3 to 30 µM.

In the experiment on Wnt/β-catenin pathway, `COC(=O)N1CCN(C(=O)[C@H]2CC[C@H](Cn3c(=O)n(C)c4ccc(OC)cc43)CC2)CC1` [Example 182] registered an IC50 of 0.3 to 30 µM.

Compound `COCC(=O)N1CCN(C(=O)[C@H]2CC[C@H](Cn3c(=O)n(C)c4ccc(OC)cc43)CC2)CC1` [Example 183] came in with an IC50 with Wnt/β-catenin pathway of 0.3 to 30 µM.

In the experiment on Wnt/β-catenin pathway, `COc1ccc2c(c1)n(C[C@H]1CC[C@H](C(=O)N3CCN(C(=O)C(C)C)CC3)CC1)c(=O)n2C` [Example 184] showed an IC50 of 0.3 to 30 µM.

On to `COc1ccc2c(c1)n(C[C@H]1CC[C@H](C(=O)N3CCN(C(=O)c4cncn4C)CC3)CC1)c(=O)n2C` [Example 185], for which the IC50 in the experiment on Wnt/β-catenin pathway fell in the range of 0.3 to 30 µM.

Turning to `COc1cc2c(cc1Cl)n(C[C@H]1CC[C@H](C(=O)N3CCOCC3)CC1)c(=O)n2C` [Example 186], the IC50 with Wnt/β-catenin pathway was 0.3 to 30 µM.

Compound `COc1ccc2c(c1)c(=O)n(C[C@H]1CC[C@H](C(=O)Nc3ccc4ncccc4c3)CC1)c(=O)n2C` [Example 187] displayed an IC50 in the experiment on Wnt/β-catenin pathway of 0.3 to 30 µM.

`COc1ccc2c(c1)c(=O)n(C[C@H]1CC[C@H](C(=O)Nc3cccc4ncccc34)CC1)c(=O)n2C` [Example 188] yielded an IC50 in the experiment with Wnt/β-catenin pathway of 0.3 to 30 µM.

The compound `COc1ccc2c(c1)c(=O)n(C[C@H]1CC[C@H](C(=O)Nc3ccc(-c4ncco4)cc3)CC1)c(=O)n2C` [Example 189] yielded an IC50 in the experiment on Wnt/β-catenin pathway of 0.3 to 30 µM.

In the experiment on Wnt/β-catenin pathway, `COc1ccc2c(c1)c(=O)n(C[C@H]1CC[C@H](C(=O)Nc3cnc4ccccn34)CC1)c(=O)n2C` [Example 190] had an IC50 of 0.3 to 30 µM.

As for `COc1cccc(NC(=O)[C@H]2CC[C@H](Cn3c(=O)c4cc(OC)ccc4n(C)c3=O)CC2)c1` [Example 191], in the experiment on Wnt/β-catenin pathway, the IC50 lay in the range of 0.3 to 30 µM.

`COc1ccc2c(c1)n(C[C@H]1CC[C@H](C(=O)N3CCN(C(=O)C4CCCO4)CC3)CC1)c(=O)n2C` (some centres unmarked) [Example 192]: in the experiment on Wnt/β-catenin pathway, the IC50 was 0.3 to 30 µM.

For the compound `COc1ccc2c(c1)c(=O)n(C[C@H]1CC[C@H](C(=O)Nc3ccon3)CC1)c(=O)n2C` [Example 193], in the experiment on Wnt/β-catenin pathway, the IC50 was in the range of 0.3 to 30 µM.

As for `COc1ccc2c(c1)c(=O)n(C[C@H]1CC[C@H](C(=O)Nc3ccc4nc(C)oc4c3)CC1)c(=O)n2C` [Example 194], the IC50 in the experiment with Wnt/β-catenin pathway was in the range of 0.3 to 30 µM.

In the experiment with Wnt/β-catenin pathway, `COc1ccc2c(c1)c(=O)n(C[C@H]1CC[C@H](C(=O)N3CCN(c4ccncc4)CC3)CC1)c(=O)n2C` [Example 195] returned an IC50 of 0.3 to 30 µM.

`CCOc1ccc2c(c1)c(=O)n(C[C@H]1CC[C@H](C(=O)Nc3ccncc3)CC1)c(=O)n2C` [Example 196]: the IC50 with Wnt/β-catenin pathway is 0.3 to 30 µM.

`CCOc1ccc2c(c1)c(=O)n(C[C@H]1CC[C@H](C(=O)N3CCN(c4ccncc4)CC3)CC1)c(=O)n2C` [Example 197] displayed an IC50 in the experiment with Wnt/β-catenin pathway of 0.3 to 30 µM.

In the experiment on Wnt/β-catenin pathway, `CCOc1ccc2c(c1)c(=O)n(C[C@H]1CC[C@H](C(=O)N3CCN(C(=O)COC)CC3)CC1)c(=O)n2C` [Example 198] showed an IC50 of 0.3 to 30 µM.

Turning to `CCOc1ccc2c(c1)c(=O)n(C[C@H]1CC[C@H](C(=O)N3CCN(C(=O)C4CCCC4)CC3)CC1)c(=O)n2C` [Example 199], in the experiment on Wnt/β-catenin pathway, the IC50 is 0.3 to 30 µM.

In turn, `CCOc1ccc2c(c1)c(=O)n(C[C@H]1CC[C@H](C(=O)N3CCN(C(C)=O)CC3)CC1)c(=O)n2C` [Example 200] came in with an IC50 with Wnt/β-catenin pathway of 0.3 to 30 µM.

In the case of `COc1ccc2c(c1)c(=O)n(C[C@H]1CC[C@H](C(=O)Nc3cccc4cccnc34)CC1)c(=O)n2C` [Example 201], in the experiment with Wnt/β-catenin pathway, the IC50 is 0.3 to 30 µM.

Regarding `CC(=O)N1CCN(C(=O)[C@H]2CC[C@H](Cn3c(=O)n(C)c4ccc(C(F)(F)F)cc43)CC2)CC1` [Example 202], the IC50 in the experiment with Wnt/β-catenin pathway lay in the range of 0.3 to 30 µM.

Turning to `COC(=O)N1CCN(C(=O)[C@H]2CC[C@H](Cn3c(=O)n(C)c4ccc(C)nc43)CC2)CC1` [Example 203], the IC50 with Wnt/β-catenin pathway lay within 0.3 to 30 µM.

For the compound `COCC(=O)N1CCN(C(=O)[C@H]2CC[C@H](Cn3c(=O)n(C)c4ccc(C)nc43)CC2)CC1` [Example 204], the IC50 with Wnt/β-catenin pathway fell in the range of 0.3 to 30 µM.

Take `COC(=O)N1CCN(C(=O)[C@H]2CC[C@H](Cn3c(=O)n(C)c4ccc(OC)nc43)CC2)CC1` [Example 205]: the IC50 in the experiment with Wnt/β-catenin pathway was in the range of 0.3 to 30 µM.

In the case of `CCOc1ccc2c(c1)c(=O)n(C[C@H]1CC[C@H](C(=O)N3CCN(C(=O)c4cncn4C)CC3)CC1)c(=O)n2C` [Example 206], the IC50 in the experiment with Wnt/β-catenin pathway lay within 0.3 to 30 µM.

For the compound `CC(=O)N1CCN(C(=O)[C@H]2CC[C@H](Cn3c(=O)n(C)c4ccc(C)nc43)CC2)CC1` [Example 207], the IC50 in the experiment on Wnt/β-catenin pathway lay within 0.3 to 30 µM.

`COCC(=O)N1CCN(C(=O)[C@H]2CC[C@H](Cn3c(=O)n(C)c4ccc(OC)nc43)CC2)CC1` [Example 208] gave an IC50 in the experiment on Wnt/β-catenin pathway of 0.3 to 30 µM.

For the compound `COc1cccc(NC(=O)[C@H]2CC[C@H](Cn3c(=O)n(C)c4ccc(OC)nc43)CC2)c1` [Example 209], in the experiment with Wnt/β-catenin pathway, the IC50 was in the range of 0.3 to 30 µM.

As to `COc1ccc2c(c1)n(C[C@H]1CC[C@H](C(=O)N3CCN(C(=O)c4cc(C)nn4C)CC3)CC1)c(=O)n2C` [Example 210], in the experiment with Wnt/β-catenin pathway, the IC50 is 0.3 to 30 µM.

In the case of `COc1ccc2c(c1)n(C[C@H]1CC[C@H](C(=O)N3CCN(C(=O)c4nccn4C)CC3)CC1)c(=O)n2C` [Example 211], in the experiment with Wnt/β-catenin pathway, the IC50 lay within 0.3 to 30 µM.
